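Briefly, cells in 96-well plates were exposed to five compound concentrations for 48 h, and endpoints were estimated by linear interpolation. GI50 marks 50% less growth.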 Calls of active or inactive are those of the source. Rule as the data show it: active = GI50 up to about 1.1 µM and inactive = higher.
Columns and labels:
Assay in all cases: NCI anticancer screen, dose series, 48 h
[1] = test system: SW-620
[2] = test system: OVCAR-4
[3] = test system: SK-MEL-2
[4] = test system: RPMI-8226
[5] = test system: HOP-62
[6] = test system: HOP-92
[7] = test system: SF-295
[8] = test system: NCI-H23
[9] = test system: HCT-116
[10] = test system: SR
[11] = test system: NCI-H460
[12] = test system: HL-60
[13] = test system: NCI-H522
[14] = test system: SF-268
[15] = test system: SK-MEL-5
[16] = test system: TK-10
[17] = test system: LOX IMVI

Measured: GI50

COC1/C(=C\C(C)=O)c2ccccc2N1C(C)=O (centres undefined)
inactive: [1] > 100 µM | [2] > 100 µM | [3] > 100 µM | [4] > 100 µM | [5] > 100 µM | [6] > 100 µM | [7] > 100 µM | [8] > 100 µM | [9] > 100 µM | [10] > 100 µM | [11] > 100 µM | [12] > 100 µM

CCOC(=O)C/C(=N\c1cc(C)on1)N(CC)CC.[O-][Cl+3]([O-])([O-])O
inactive: [13] > 100 µM | [1] > 100 µM | [14] > 100 µM | [3] > 100 µM | [4] > 100 µM | [5] > 100 µM | [6] > 100 µM | [15] > 100 µM | [8] > 100 µM | [9] > 100 µM | [10] > 100 µM | [16] > 100 µM | [11] > 100 µM

O=[N+]([O-])c1ccc(/C=C/c2ccc(/C=C/c3ccc([N+](=O)[O-])cc3[N+](=O)[O-])cc2)c([N+](=O)[O-])c1
inactive: [1] > 100 µM | [2] > 100 µM | [3] > 100 µM | [4] > 100 µM | [5] > 100 µM | [7] > 100 µM | [15] > 100 µM | [8] > 100 µM | [9] > 100 µM | [16] > 100 µM | [11] > 100 µM | [12] > 100 µM

COc1ccc2c(C(=O)O)cc3cc(OC)c(OC)cc3c2c1
inactive: [13] > 100 µM | [1] > 100 µM | [14] > 100 µM | [3] > 100 µM | [4] > 100 µM | [6] > 100 µM | [7] > 100 µM | [15] 43.6 µM | [8] > 100 µM | [9] > 100 µM | [10] > 100 µM | [16] > 100 µM | [11] > 100 µM | [17] > 100 µM | [12] 57.4 µM

N#Cc1c(NN)nc(NN)c(C#N)c1-c1ccccc1
inactive: [1] > 100 µM | [14] > 100 µM | [2] > 100 µM | [3] > 100 µM | [4] > 100 µM | [5] > 100 µM | [6] > 100 µM | [7] > 100 µM | [15] > 100 µM | [8] > 100 µM | [9] > 100 µM | [16] > 100 µM | [11] > 100 µM | [17] > 100 µM | [12] > 100 µM

COc1ccc(Br)c(CCCCC(=O)O)c1
inactive: [1] > 100 µM | [2] > 100 µM | [4] > 100 µM | [5] > 100 µM | [6] 2.89 µM | [7] > 100 µM | [15] > 100 µM | [8] > 100 µM | [9] > 100 µM | [16] > 100 µM | [11] > 100 µM | [17] > 100 µM | [12] > 100 µM

COC(=O)Cc1cc(=O)[nH]c2c1C(=O)CCC2
inactive: [13] > 100 µM | [1] > 100 µM | [14] > 100 µM | [3] > 100 µM | [4] > 100 µM | [6] > 100 µM | [7] > 100 µM | [15] > 100 µM | [8] > 100 µM | [10] > 100 µM | [16] > 100 µM | [11] > 100 µM | [12] > 100 µM

COc1ccc(/C(Cl)=C/c2ccc(Cl)c(Cl)c2)cc1
inactive: [13] 16.3 µM | [1] 43.2 µM | [14] 35.5 µM | [2] 41.5 µM | [4] 18.2 µM | [5] 27.5 µM | [6] 30.1 µM | [7] 23.7 µM | [15] 18 µM | [8] 19 µM | [9] 22.7 µM | [10] 18.9 µM | [12] 17.3 µM

NC1=NC(=O)C(CC(=O)Nc2ccc([N+](=O)[O-])cc2[N+](=O)[O-])S1 (centres undefined)
inactive: [1] > 100 µM | [14] > 100 µM | [2] > 100 µM | [3] > 100 µM | [4] > 100 µM | [5] > 100 µM | [6] 16.7 µM | [7] > 100 µM | [15] > 100 µM | [8] > 100 µM | [9] > 100 µM | [16] > 100 µM | [11] > 100 µM | [17] > 100 µM | [12] 83.2 µM

CC(=O)CC(=O)CCCC(=O)Nc1ccc(Cl)cc1C
inactive: [13] > 100 µM | [1] > 100 µM | [14] > 100 µM | [2] > 100 µM | [3] > 100 µM | [4] > 100 µM | [6] > 100 µM | [7] > 100 µM | [15] > 100 µM | [8] > 100 µM | [9] > 100 µM | [16] > 100 µM | [11] > 100 µM | [17] > 100 µM | [12] > 100 µM

O=[N+]([O-])c1cc2c(cc1O)[nH]c1cccc([N+](=O)[O-])c12
inactive: [13] > 100 µM | [1] > 100 µM | [14] > 100 µM | [2] > 100 µM | [3] > 100 µM | [4] > 100 µM | [5] > 100 µM | [7] > 100 µM | [15] 40.7 µM | [8] > 100 µM | [9] > 100 µM | [10] > 100 µM | [16] > 100 µM | [11] > 100 µM | [17] > 100 µM | [12] > 100 µM

COc1ccc(NC(=O)CC(=O)n2nc(-c3ccccc3)c(/N=N/c3ccccc3C(=O)O)c2-c2ccccc2)cc1
inactive: [13] > 100 µM | [1] > 100 µM | [14] > 100 µM | [2] 92.5 µM | [3] > 100 µM | [4] > 100 µM | [5] 30.1 µM | [6] 18.5 µM | [7] 42.4 µM | [15] > 100 µM | [8] > 100 µM | [9] > 100 µM | [10] 62.2 µM | [16] > 100 µM | [17] > 100 µM

O=C(CC1(O)C(=O)Nc2ccccc21)c1ccco1 (centres undefined)
inactive: [13] > 100 µM | [1] > 100 µM | [14] > 100 µM | [2] > 100 µM | [3] > 100 µM | [4] > 100 µM | [5] > 100 µM | [6] > 100 µM | [7] > 100 µM | [15] > 100 µM | [8] > 100 µM | [9] > 100 µM | [16] > 100 µM | [11] > 100 µM | [17] > 100 µM | [12] > 100 µM

O=S(=O)(O)CS(=O)(=O)OCCCl
inactive: [13] > 100 µM | [1] > 100 µM | [14] > 100 µM | [2] > 100 µM | [4] > 100 µM | [5] > 100 µM | [6] > 100 µM | [7] > 100 µM | [15] > 100 µM | [8] > 100 µM | [9] > 100 µM | [10] > 100 µM | [16] > 100 µM | [11] > 100 µM | [17] > 100 µM | [12] > 100 µM
